System in one data set: not listed separately
In words: Acute toxicity (mortality over 24 h). The following applies: in vivo, po; mouse, 500 mg/kg p. os, observed 24 h; read-out: p. cent de mortalité à 500 mg/kg p. os. As to the method: Les produits à étudier sont administrés par voie orale aux doses de 500 et 1 000 mg/kg à des lots de souris. On observe les souris pendant 24 h et note la mortalité.
Les résultats exprimés en pourcentage de mortalité figurent dans le tableau XI ci-après.
With `CCCCN(CCCC)C(=O)CCCNC(=O)C(C)C` [40 462], the mortality at 24 h was determined as 0%.

On to `CCCCNC(=O)CCCNC(=O)CCC` [40 142], for which the mortality at 24 h worked out at 0%.

As for `CCCCN(CCCC)C(=O)CCNC(=O)C(C)(C)C` [40 319], the mortality at 24 h worked out at 0%.

For `CCCC(=O)NCCCC(=O)NCc1ccccc1` [40 316], the mortality at 24 h came out at 0%.

Consider `CCCC(=O)NCCCC(=O)NC(C)(C)CC` [40 989], for which the mortality at 24 h stood at 0%.

`CCCCNC(=O)CC(C)NC(=O)CCC` (stereo not drawn) [40 395]: the mortality at 24 h came to 0%.

With `CCCC(=O)NCCCC(N)=O` [40 401, Dioxo-2,7 diaza-1,6 décane], the mortality at 24 h amounted to 0%.

With `CCCCN(CCCC)C(=O)CCCNC(=O)C(C)(C)C` [40 272], the mortality at 24 h is 0%.

As to `CCCCN(CCCC)C(=O)CCNC(=O)CCC` [40 271], the mortality at 24 h is 0%.

As to `CCCCNC(=O)CCCNC(=O)C(C)C` [40 467], the mortality at 24 h is 0%.

With `CCCC(=O)NCCCC(=O)N(C(C)CC)C(C)CC` (stereo not drawn) [40 216], the mortality at 24 h is 0%.

On to `CCCCNC(=O)CCCNC(=O)CC(C)C` [40 417], for which the mortality at 24 h worked out at 0%.

The same data set, now with this note: in vivo, po; mouse, 1000 mg/kg p. os, observed 24 h; read-out: p. cent de mortalité à 1000 mg/kg p. os.
`CCCCN(CCCC)C(=O)CCCNC(=O)C(C)C` [40 462]: the mortality at 24 h was 0%.

For `CCCCNC(=O)CCCNC(=O)CCC` [40 142], the mortality at 24 h was 0%.

As for `CCCCN(CCCC)C(=O)CCNC(=O)C(C)(C)C` [40 319], the mortality at 24 h came to 0%.

On to `CCCC(=O)NCCCC(=O)NCc1ccccc1` [40 316], for which the mortality at 24 h is 0%.

Consider `CCCC(=O)NCCCC(=O)NC(C)(C)CC` [40 989], for which the mortality at 24 h was 80%.

For the molecule `CCCCNC(=O)CC(C)NC(=O)CCC` (stereo not drawn) [40 395], the mortality at 24 h came out at 20%.

In the case of `CCCC(=O)NCCCC(N)=O` [40 401, Dioxo-2,7 diaza-1,6 décane], the mortality at 24 h was found to be 0%.

For the molecule `CCCCN(CCCC)C(=O)CCCNC(=O)C(C)(C)C` [40 272], the mortality at 24 h amounted to 0%.

In the case of `CCCCN(CCCC)C(=O)CCNC(=O)CCC` [40 271], the mortality at 24 h turned out to be 100%.

On to `CCCCNC(=O)CCCNC(=O)C(C)C` [40 467], for which the mortality at 24 h worked out at 0%.

On to `CCCC(=O)NCCCC(=O)N(C(C)CC)C(C)CC` (stereo not drawn) [40 216], for which the mortality at 24 h stood at 100%.

`CCCCNC(=O)CCCNC(=O)CC(C)C` [40 417]: the mortality at 24 h stood at 20%.

A further data set relates to souris. In words: Anticonvulsant effect against electroshock seizures. The format is in vivo. The following applies: 1 h; mouse, electroshock 12.5 V for 0.5 s, 60 min after oral dosing; read-out: Dose efficace médiane de protection des crises toniques (DE 50) Electrochoc. As to the method: (§1) L'effet anticonvulsivant a été déterminé vis-à-vis des crises convulsives provoquées par l'électrochoc ou par la bicuculline.
L'électrochoc (12,5 V pendant 0,5 s) est effectué chez la souris 60 min après l'administration du produit par voie orale.
(§2) En opérant sur divers lots d'animaux avec des doses différentes du produit à étudier, on peut déterminer la dose efficace médiane (DE 50).
(§3) Les résultats sont rassemblés dans le tableau VIII ci-après et montrent les propriétés anticonvulsivan- tes nettes des produits étudiés.
For `CCCCN(CCCC)C(=O)CCCNC(=O)C(C)C` [40 462], the ED50 was determined as 500 mg/kg.

As to `CCCCCNC(=O)CCCNC(=O)CCC` [40 521], the ED50 was 180 mg/kg.

Regarding `CCCCNC(=O)CCCNC(=O)CCC` [40 142], the ED50 stood at 150 mg/kg.

In the case of `CCCCN(CCCC)C(=O)CCNC(=O)CCC` [40 271], the ED50 is 500 mg/kg.

With `CCCCNC(=O)CCCNC(=O)C(C)C` [40 467], the ED50 was less than 500 mg/kg.

In another data set the test system is souris. In words: Potentiation of pentobarbital narcosis (loss of righting reflex). The following applies: mouse, 500 mg/kg p. os 1 h before pentobarbital 20 mg/kg i.p. Type of data set: in vivo. As to the method:
Les produits à étudier ont été administrés per os chez la souris à la dose de 500 mg/kg, 1 h avant le pentobarbital injecté par voie intrapéritonéale à raison de 20 mg/kg.
On détermine le pourcentage des animaux ayant perdu le réflexe de retournement. Les résultats sont exprimés en pourcentage ou, dans quelques cas, en dose efficace 50 (DE 50) ou dose provoquant la narcose chez 50 % des animaux traités.
Les résultats figurent dans le tableau VI ci-après.
With `CCCCNC(=O)CCNC(=O)C(C)(C)C` [40 318], the “Pourcentage d'animaux en narcose à 500 mg/kg p. os” value was found to be 90%.

For `CCCCN(CCCC)C(=O)CCCNC(=O)C(C)C` [40 462], the “Pourcentage d'animaux en narcose à 500 mg/kg p. os” value worked out at 30%.

As to `CCCC(=O)NCCCC(=O)NCc1ccccc1` [40 316], the “Pourcentage d'animaux en narcose à 500 mg/kg p. os” value came to 70%.

Regarding `CCCC(=O)NCCCC(=O)NC(C)(C)CC` [40 989], the “Pourcentage d'animaux en narcose à 500 mg/kg p. os” value is on record as 50%.

For `CCCCNC(=O)CC(C)NC(=O)CCC` (stereo not drawn) [40 395], the “Pourcentage d'animaux en narcose à 500 mg/kg p. os” value amounted to 70%.

For the molecule `CCCC(=O)NCCCC(N)=O` [40 401, Dioxo-2,7 diaza-1,6 décane], the “Pourcentage d'animaux en narcose à 500 mg/kg p. os” value was found to be 0%.

`CCCCN(CCCC)C(=O)CCCNC(=O)C(C)(C)C` [40 272]: the “Pourcentage d'animaux en narcose à 500 mg/kg p. os” value came out at 72%.

On to `CCCCN(CCCC)C(=O)CCNC(=O)CCC` [40 271], for which the “Pourcentage d'animaux en narcose à 500 mg/kg p. os” value came out at 100%.

`CCCC(=O)NCCCC(=O)N(C(C)CC)C(C)CC` (stereo not drawn) [40 216]: the “Pourcentage d'animaux en narcose à 500 mg/kg p. os” value was 100%.

The data set is the same for the next values; noted with them: po; mouse, p. os 1 h before pentobarbital 20 mg/kg i.p.; unit not given for DE 50; read-out: dose (p. os) provoquant 50 % d'induction de narcose (DE 50).
Consider `CCCCNC(=O)CCCNC(=O)CCC` [40 142], for which the ED50 amounted to 297 mg/kg.

Regarding `CCCCN(CCCC)C(=O)CCNC(=O)C(C)(C)C` [40 319], the ED50 worked out at 175 mg/kg.

Another data set concerns souris. The experiment in a line: Actography (locomotor activity, two perpendicular light beams). The format is in vivo. The following applies: mouse, 500 mg/kg oral; grouping in words. As to the method:
La mesure de l'actographie est effectuée chez la souris 45 min. après l'administration du produit. On opère sur des lots de 12 animaux, chacun d'eux étant isolé pendant 10 min. avant la mesure. Le comptage des scores est effectué par coupure de deux faisceaux lumineux perpendiculaires.
Dans le tableau IV ci-après sont rassemblés les résultats obtenus avec divers produits de l'invention administrés à la dose de 500 mg/kg par voie orale. Les résultats sont exprimés en pourcentage de variation des scores obtenus par rapport à des animaux témoins non traités.
On peut constater que les produits se répartissent en deux groupes : • ceux provoquant de l'hypomotilité tels que 40217, 40039, 40271, 40272, 40319; dans le cas où les animaux traités présentent une perte du réflexe de retournement, ce qui traduit l'effet de narcose propre du produit, on a noté PRR; • ceux provoquant de l'hypermotilité, tels que 40142, 40398, 40397, 40404, 40253, 40355, 40209; pour préciser les résultats obtenus, l'étude pour deux produits a été reprise en effet-dose suivant le même protocole. • Les résultats obtenus figurent dans le tableau V ci-après.
Consider `CCCCNC(=O)CCCNC(=O)CCC` [40 142], for which the “hypomotilité / hypermotilité” value is on record as “hypermotilité”.

Turning to `CCCCN(CCCC)C(=O)CCNC(=O)C(C)(C)C` [40 319], the “hypomotilité / hypermotilité” value is on record as “hypomotilité”.

`CCCCN(CCCC)C(=O)CCCNC(=O)C(C)(C)C` [40 272]: the “hypomotilité / hypermotilité” value is recorded as “hypomotilité”.

Consider `CCCCN(CCCC)C(=O)CCNC(=O)CCC` [40 271], for which the “hypomotilité / hypermotilité” value is reported as “hypomotilité”.

The subject of a further data set is souris. The experiment in a line: Anticonvulsant effect against bicuculline-induced tonic seizures. The format is in vivo. The following applies: 1 h; mouse, bicuculline 1 mg/kg i.v. 60 min after oral dosing; read-out: Dose efficace médiane de protection des crises toniques (DE 50) Bicuculline. As to the method:
as §1
La bicuculline est administrée à la souris par voie intraveineuse à raison de 1 mg/kg, 60 min après le produit à étudier donné per os. On note l'effet protecteur obtenu vis-à-vis des crises toniques.
as §2, §3
Turning to `CCCCN(CCCC)C(=O)CCCNC(=O)C(C)C` [40 462], the ED50 was determined as 150 mg/kg.

Regarding `CCCCCNC(=O)CCCNC(=O)CCC` [40 521], the ED50 is 250 mg/kg.

`CCCCNC(=O)CCCNC(=O)CCC` [40 142]: the ED50 was 325 mg/kg.

As to `CCCCN(CCCC)C(=O)CCNC(=O)CCC` [40 271], the ED50 is less than 500 mg/kg.

For `CCCCNC(=O)CCCNC(=O)C(C)C` [40 467], the ED50 is 150 mg/kg.

The next data set has as its system acide homovanillique (HVA). In words: Effect on central dopaminergic activity (homovanillic acid accumulation in whole brain). The format is in vivo, souris. The following applies: mouse whole brain, 500 mg/kg p.os, 2 h. As to the method:
L'effet des produits sur l'activité dopaminergique centrale a été étudié par la mesure de l'accumulation de l'acide homovanillique sur une période de 24 h après l'administration des produits chez la souris.
Le taux d'acide homovanillique (HVA) est évalué dans le cerveau entier, les animaux reçoivent une injection de probenecid (200 mg/kg i.p.) 1 h 30 min avant le sacrifice (lot de 10 animaux).
With `CCCCNC(=O)CCCNC(=O)CCC` [40 142], the “Taux de HVA en” value is 379 ± 11 ng/g.

Staying with this data set, now noted: mouse whole brain, 500 mg/kg p.os, 4 h.
In the case of `CCCCNC(=O)CCCNC(=O)CCC` [40 142], the “Taux de HVA en” value came to 793 ± 52 ng/g.

Still in this data set, the particulars now being: mouse whole brain, 500 mg/kg p.os, 6 h.
For `CCCCNC(=O)CCCNC(=O)CCC` [40 142], the “Taux de HVA en” value came out at 571 ± 23 ng/g.

The same data set, now with this note: mouse whole brain, 500 mg/kg p.os, 24 h.
In the case of `CCCCNC(=O)CCCNC(=O)CCC` [40 142], the “Taux de HVA en” value was 290 ± 16 ng/g.

The same data set, now with this note: mouse whole brain, 500 mg/kg p.os, time 0 (baseline).
For `CCCCNC(=O)CCCNC(=O)CCC` [40 142], the “Taux de HVA en” value was 521 ± 29 ng/g.

Source of the values: patent EP0046707B1, “Derivatives of 4-aminobutyric acid and the medicines especially active on the central nervous system containing them” (priority 1980, dated 1982).
